Data published in the supplement of paper PMC10307832.

Key:
Assay in all cases: relative viability (nuclei count vs DMSO), 5 days (fraction); higher = more cells survive
Ruxolitinib + Dasatinib = compound: N#CC[C@H](C1CCCC1)n1cc(-c2ncnc3[nH]ccc23)cn1 [Ruxolitinib] + Cc1nc(Nc2ncc(C(=O)Nc3c(C)cccc3Cl)s2)cc(N2CCN(CCO)CC2)n1 [Dasatinib] (partner 0.075 µM)
Outline: (§1)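 Cells from lung cancer lines were seeded into 1536-well plates and, one day later, dosed by pin tool. Treatments were either a single drug or a fixed dose of an anchor drug with five library-drug doses (not always all listed) in √10 steps. After 5 days, nuclei were stained in a one-step fixation (final 0.05% Triton X-100, 1% formaldehyde, 1 ug/ml Hoechst) and counted on 4× images, and relative viability is the treated-to-vehicle nuclei ratio, as the median of duplicate plates.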

Vismodegib + Lapatinib = compound: CS(=O)(=O)c1ccc(C(=O)Nc2ccc(Cl)c(-c3ccccn3)c2)c(Cl)c1 [Vismodegib] + CS(=O)(=O)CCNCc1ccc(-c2ccc3ncnc(Nc4ccc(OCc5cccc(F)c5)c(Cl)c4)c3c2)o1 [Lapatinib] (partner 2 µM)
Outline: as §1

Vismodegib + Crizotinib = compound: CS(=O)(=O)c1ccc(C(=O)Nc2ccc(Cl)c(-c3ccccn3)c2)c(Cl)c1 [Vismodegib] + C[C@@H](Oc1cc(-c2cnn(C3CCNCC3)c2)cnc1N)c1c(Cl)ccc(F)c1Cl [Crizotinib] (partner 1 µM)
Outline: as §1

Cell Line | relative viability (Ruxolitinib + Dasatinib; first compound 0.08 µM) | relative viability (Ruxolitinib + Dasatinib; first compound 0.253 µM) | relative viability (Ruxolitinib + Dasatinib; first compound 0.8 µM) | relative viability (Ruxolitinib + Dasatinib; first compound 2.53 µM) | relative viability (Ruxolitinib + Dasatinib; first compound 8 µM) | relative viability (Vismodegib + Lapatinib; first compound 0.08 µM) | relative viability (Vismodegib + Lapatinib; first compound 0.253 µM) | relative viability (Vismodegib + Lapatinib; first compound 0.8 µM) | relative viability (Vismodegib + Lapatinib; first compound 2.53 µM) | relative viability (Vismodegib + Lapatinib; first compound 8 µM) | relative viability (Vismodegib + Crizotinib; first compound 0.08 µM) | relative viability (Vismodegib + Crizotinib; first compound 0.253 µM) | relative viability (Vismodegib + Crizotinib; first compound 0.8 µM) | relative viability (Vismodegib + Crizotinib; first compound 2.53 µM) | relative viability (Vismodegib + Crizotinib; first compound 8 µM)
SK-MES-1 | 0.313 | 0.372 | 0.315 | 0.199 | 0.285 | 0.498 | 0.475 | 0.404 | 0.484 | 0.499 | 0.94 | 0.936 | 0.923 | 0.969 | 1.07
HCC-827 | 0.133 | 0.3 | 0.346 | 0.231 | 0.199 | 0.162 | 0.163 | 0.185 | 0.192 | 0.214 | 0.893 | 0.888 | 0.985 | 0.908 | 0.887
NCI-H596 | 0.581 | 0.654 | 0.585 | 0.575 | 0.496 | 0.983 | 1.07 | 0.941 | 1.1 | 1.09 | 0.986 | 0.966 | 0.929 | 1.02 | 0.965
COR-L23 | 0.483 | 0.534 | 0.521 | 0.386 | 0.341 | 0.93 | 0.802 | 0.901 | 0.986 | 1.02 | 0.593 | 0.589 | 0.603 | 0.591 | 0.816
201T | 0.571 | 0.593 | 0.67 | 0.558 | 0.558 | 1.05 | 0.998 | 0.946 | 1.04 | 1.02 | 0.954 | 1.06 | 0.997 | 1.02 | 1.01
NCI-H322M | 0.248 | 0.258 | 0.241 | 0.238 | 0.217 | 0.631 | 0.646 | 0.519 | 0.565 | 0.572 | 0.858 | 0.869 | 0.849 | 0.879 | 1.08
LU99A | 0.628 | 0.607 | 0.514 | 0.429 | 0.38 | 0.928 | 1.04 | 1.04 | 1.04 | 0.979 | 0.664 | 0.49 | 0.575 | 0.491 | 0.624
NCI-H2405 |  | 0.192 | 0.214 | 0.189 | 0.218 |  | 1.09 | 0.937 | 0.913 | 1.11 | 0.851 | 0.86 | 0.807 | 0.784 | 0.83
LK-2 | 0.287 | 0.339 | 0.332 | 0.32 | 0.349 | 0.916 | 0.941 | 0.893 | 0.896 | 0.72 | 0.247 | 0.248 | 0.215 | 0.203 | 0.239
HCC-366 | 0.646 | 0.547 | 0.595 | 0.431 | 0.52 | 1.08 | 1.01 | 1.1 | 1.01 | 1 | 0.623 | 0.567 | 0.501 | 0.508 | 0.566
NCI-H441 | 0.507 | 0.432 | 0.698 | 0.396 | 0.672 |  |  |  |  |  | 0.68 | 0.745 | 0.658 | 0.722 | 0.723
COR-L 105 | 0.313 | 0.295 | 0.326 | 0.214 | 0.23 | 0.36 | 0.38 | 0.392 | 0.363 | 0.337 | 0.63 | 0.728 | 0.751 | 0.773 | 0.715
A-427 | 0.74 | 0.751 | 0.66 | 0.441 | 0.463 | 1.09 | 1.04 | 1.01 | 0.977 | 1.13 | 0.833 | 0.838 | 0.927 | 0.857 | 0.882
HCC-44 |  |  |  |  |  | 0.998 | 1.02 | 0.965 | 1.04 | 0.991 | 0.782 | 0.721 | 0.829 | 0.763 | 0.783
NCI-H2170 | 0.691 | 0.681 | 0.627 | 0.599 | 0.483 | 0.258 | 0.271 | 0.26 | 0.307 | 0.28 | 1.23 | 1.08 | 1.19 | 1.17 | 1.31
NCI-H1623 | 0.591 | 0.512 | 0.488 | 0.699 | 0.474 |  |  |  |  |  |  |  |  |  | 
NCI-H2228 | 0.399 | 0.457 | 0.484 | 0.401 | 0.198 | 1.16 | 1.19 | 1.03 | 1.05 | 1.02 | 0.563 | 0.412 | 0.426 | 0.547 | 0.419
ABC-1 |  | 0.53 | 0.547 | 0.64 | 0.45 |  | 1.17 | 1.14 | 1.02 | 1.15 | 0.6 | 0.827 | 1.12 | 0.993 | 0.958
LOU-NH91 |  | 0.461 | 0.556 | 0.496 | 0.439 | 0.757 | 0.798 | 0.663 | 0.745 | 0.841 | 0.726 | 0.76 | 0.704 | 0.747 | 0.728
NCI-H727 | 0.396 | 0.303 | 0.456 | 0.469 | 0.451 | 0.814 | 0.653 | 0.585 | 0.826 | 0.874 | 0.733 | 0.771 | 0.576 | 0.938 | 0.857
NCI-H2023 | 0.616 | 0.336 | 0.575 | 0.332 | 0.354 | 0.426 | 0.871 | 0.738 | 0.76 | 0.935 | 0.586 | 0.56 | 0.707 | 0.615 | 0.685

Cell Line | relative viability (Ruxolitinib + Dasatinib; first compound 0.08 µM) | relative viability (Ruxolitinib + Dasatinib; first compound 0.253 µM) | relative viability (Ruxolitinib + Dasatinib; first compound 0.8 µM) | relative viability (Ruxolitinib + Dasatinib; first compound 2.53 µM) | relative viability (Ruxolitinib + Dasatinib; first compound 8 µM) | relative viability (Vismodegib + Lapatinib; first compound 0.08 µM) | relative viability (Vismodegib + Lapatinib; first compound 0.253 µM) | relative viability (Vismodegib + Lapatinib; first compound 0.8 µM) | relative viability (Vismodegib + Lapatinib; first compound 2.53 µM) | relative viability (Vismodegib + Lapatinib; first compound 8 µM) | relative viability (Vismodegib + Crizotinib; first compound 0.08 µM) | relative viability (Vismodegib + Crizotinib; first compound 0.253 µM) | relative viability (Vismodegib + Crizotinib; first compound 0.8 µM) | relative viability (Vismodegib + Crizotinib; first compound 2.53 µM) | relative viability (Vismodegib + Crizotinib; first compound 8 µM)
NCI-H1563 | 0.446 | 0.481 | 0.452 | 0.43 | 0.402 | 0.849 | 0.878 | 0.901 | 0.892 | 0.966 | 0.914 | 0.801 | 0.888 | 0.814 | 0.969
LCLC-103H | 0.418 | 0.448 | 0.564 | 0.382 | 0.362 |  |  |  |  |  | 0.871 | 1.04 | 0.955 | 1.02 | 1.04
HARA | 0.224 | 0.323 | 0.305 | 0.195 | 0.22 | 0.858 | 0.713 | 0.662 | 0.797 | 0.634 | 0.956 | 0.965 | 1.03 | 1.05 | 1.06
RERF-LC-KJ | 0.886 | 0.742 | 0.942 | 0.737 | 0.635 | 0.902 | 0.848 | 0.762 | 0.817 | 0.826 | 0.821 | 0.813 | 0.81 | 0.848 | 0.82
NCI-H2009 | 0.354 | 0.263 | 0.273 | 0.129 | 0.176 | 0.901 | 0.891 | 0.892 | 0.899 | 0.788 | 0.94 | 1.05 | 1.13 | 1.01 | 1.12
NCI-H2126 | 0.599 | 0.526 | 0.715 | 0.616 | 0.453 | 0.725 | 0.746 | 0.701 | 0.616 | 0.729 | 1.11 | 0.96 | 1.08 | 0.991 | 1.04
NCI-H460 | 0.527 | 0.377 | 0.56 | 0.388 | 0.352 | 0.903 | 0.887 | 1.2 | 0.823 | 1.03 | 0.985 | 0.925 | 1.04 | 0.936 | 0.999
SW 900 | 0.675 | 0.487 | 0.542 | 0.403 | 0.489 |  |  |  |  |  |  |  |  |  | 
NCI-H1703 |  |  |  |  |  | 1.12 | 0.822 | 1.21 | 1.16 | 1.52 | 0.54 | 0.664 | 0.628 | 0.57 | 0.93
NCI-H1395 | 0.387 | 0.374 | 0.42 | 0.434 | 0.361 | 1.06 | 0.899 | 0.855 | 0.927 | 1.18 |  |  |  |  | 
NCI-H647 | 0.207 | 0.155 | 0.182 | 0.0851 | 0.106 | 0.99 | 0.998 | 1.17 | 1.01 | 1.12 | 1.07 | 1.13 | 1.11 | 0.969 | 1.07
NCI-H23 | 0.536 | 0.679 | 0.8 | 0.597 | 0.517 | 1.1 | 1.08 | 1.09 | 1.11 | 1.09 | 0.489 | 0.54 | 0.597 | 0.553 | 0.537
NCI-H1793 | 0.286 | 0.394 | 0.389 | 0.303 | 0.243 |  | 0.667 | 0.658 | 0.671 | 0.676 |  |  |  |  | 
ChaGo-K-1 | 0.631 | 0.573 | 0.548 | 0.548 | 0.403 |  |  |  |  |  | 1.19 | 1.09 | 1.13 | 1.06 | 1.22
EBC-1 |  |  |  |  |  | 0.215 | 0.189 | 0.205 | 0.195 | 0.215 | 0.173 | 0.201 | 0.168 | 0.182 | 0.202
NCI-H2342 | 0.315 | 0.299 | 0.341 | 0.31 | 0.319 |  |  |  |  |  |  |  |  |  | 
NCI-H1299 |  |  |  |  |  | 0.952 | 0.893 | 0.992 | 0.968 | 1 | 0.918 | 0.929 | 0.96 | 0.96 | 0.947
Calu-6 |  |  |  |  |  | 1.13 | 1.08 | 1.06 | 1.09 | 1.03 | 0.705 | 0.754 | 0.757 | 0.814 | 0.886
IA-LM |  |  |  |  |  | 0.807 | 0.639 | 0.802 | 0.691 | 0.911 | 0.719 | 0.769 | 0.906 | 0.681 | 0.94
NCI-H522 | 0.751 | 1.03 | 0.916 | 0.919 | 0.731 |  |  |  |  |  |  |  |  |  | 
A549 |  |  |  |  |  | 1.02 | 0.972 | 0.971 | 0.979 | 0.908 | 0.711 | 0.759 | 0.796 | 0.672 | 0.686
